This note sets out measurements from patent US20050037335A1, “Method for identifying novel transcriptional regulatory proteins” (priority 1999, published 2005).

Assay [1] concerns the target T1, tTA (Wildtype) (Escherichia coli, UniProt P04483).
T1 construct: expressed in transfected cells; host or cells: HeLa cells, transient transfection
Briefly: Inducer-dependent repression of luciferase activity by tTA, transient transfection in HeLa cells. The class given is cell-based.

Assay [2] has as its target T2, tTA-45 (L170V) (Escherichia coli, UniProt P04483, L170V).
T2 construct: expressed in transfected cells; host or cells: HeLa cells, transient transfection
The assay can be described thus: Inducer-dependent repression of luciferase activity by tTA-45, transient transfection in HeLa cells. Format: cell-based. Here is the method: One mutant that was isolated from this screen, tTA-45, was sequenced and found to carry an amino acid exchange at position 170 from a leucine to a valine (L170V). The induction efficiency of tTA-45 in response to varying concentrations of Tc or Dox was determined in transient transfection assays in HeLa cells. The inducer concentration leading to 50% repression of the luciferase activity (IC50) was determined and is described in Table 3 below.

T1 sequence (P04483 whole entry, added parts left off): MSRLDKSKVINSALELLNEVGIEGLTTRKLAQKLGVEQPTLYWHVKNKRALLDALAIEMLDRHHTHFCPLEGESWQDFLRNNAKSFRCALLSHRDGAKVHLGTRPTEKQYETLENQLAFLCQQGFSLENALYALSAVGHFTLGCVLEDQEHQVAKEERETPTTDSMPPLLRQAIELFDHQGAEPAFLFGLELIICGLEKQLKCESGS
T2 sequence (P04483 other isoform, or with tags, fused parts or gaps L170V): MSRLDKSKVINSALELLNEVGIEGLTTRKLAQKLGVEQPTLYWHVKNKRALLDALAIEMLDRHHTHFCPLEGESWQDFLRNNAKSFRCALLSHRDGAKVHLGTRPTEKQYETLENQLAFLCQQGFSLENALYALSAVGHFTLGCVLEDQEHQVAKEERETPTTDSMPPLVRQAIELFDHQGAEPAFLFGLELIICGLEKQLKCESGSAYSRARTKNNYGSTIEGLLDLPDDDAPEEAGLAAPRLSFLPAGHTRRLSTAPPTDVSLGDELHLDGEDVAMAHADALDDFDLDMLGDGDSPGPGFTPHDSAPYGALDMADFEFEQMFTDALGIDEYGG

For `C[C@H]1c2cccc(O)c2C(=O)C2=C(O)[C@]3(O)C(=O)C(C(N)=O)=C(O)[C@@H](N(C)C)[C@@H]3[C@@H](O)[C@@H]21` [Dox, doxycycline], the values for the IC50 in assay [1] and in assay [2] were 1.35 nM and 11.3 nM, respectively.
Turning to `CN(C)[C@@H]1C(O)=C(C(N)=O)C(=O)[C@@]2(O)C(O)=C3C(=O)c4c(O)cccc4[C@@](C)(O)[C@H]3C[C@@H]12` [Tc, tetracycline], the concentration for half-maximal inhibition (IC50) in assay [1] was 6.75 nM; in assay [2], 608 nM.

As a reminder, the IC50 is the concentration that gives 50% inhibition.
